Consider two molecules from patent publication US20250368624A1, “M24B AMINOPEPTIDASE INHIBITORS FOR CARD8 INFLAMMASOME ACTIVATION” (Memorial Sloan-Kettering Cancer Center, priority 2022, published 2025).

One data set has as its system MV4;11 CASP1-/- cells. The data set can be described thus: CellTiter-Glo cell viability, CASP1-/- MV4;11 cells. In kind it is cell-based. To be noted: Homo sapiens, MV4-11; 24 h, CTG. As to the method: Cloning. CASP1^−/− MV4;11 cells^12; CARD8^−/− MV4;11, THP-1, OCI-AML2 cells^14; DPP8/9^−/− THP-1^12; PEPD^−/−, XPNPEP1^−/−, PEPD XPNPEP1^−/− THP-1 cells were generated. Plasmids for CARD8 variants, CASP1, GSDMD, dTAG-CARD8^ZUC were cloned as described previously (Hollingsworth et al., 2021; Johnson et al., 2018; Sharif et al., 2021).
(§1) CellTiter-Glo cell viability and CytoTox-Fluor cell death assays. Cells were plated (2,000 cells per well) in white, 384-well clear-bottom plates (Corning) using an EL406 Microplate Washer/Dispenser (BioTek) in 25 μL final volume of medium. To the cell plates were added compounds at different concentrations using a pintool (CyBio) and the plates were allowed to incubate in the incubator. After incubation for indicated times, CytoTox-Fluor reagent (Promega, G9262) was added according to the manufacturer's protocol. The assay plates were then incubated for another 30 min before fluorescence was recorded using a Cytation 5 Cell Imaging Multi-Mode Reader (BioTek). Next, CellTiter-Glo reagent (Promega, G7573) was subsequently added to the assay plates following the manufacturer's protocol. Assay plates were shaken on an orbital shaker for 2 min and incubated at 25° C. for 10 min. Luminescence was then read using a Cytation 5 Cell Imaging Multi-Mode Reader (BioTek).

The test system of the next data set is MV4;11 cells. The data set can be described thus: Propidium iodide uptake, MV4;11 cells (WT, CASP1-/-, CARD8-/-). It counts as cell-based. To be noted: MV4;11 WT vs CASP1-/- or CARD8-/-, 6.25 μM. As to the method: (§2) Propidium iodideflux analysis. 2×10^4 MV4;11 or OCI-AML2 cells were plated in 384-well, black, clear-bottom plate (Corning) in RPMI medium. Cells were then treated as indicated and propidium iodide (PI) was added at a final concentration of 10 μM. PI fluorescence was measured at (Ex/Em: 535/617 nm) recorded at 37° C. every 5 mins in a Cytation 5 Cell Imaging Multi-Mode Reader (BioTek). The obtained measurements were baseline corrected to vehicle/DMSO and normalized to maximum response.

Data set [1] relates to OCI-AML2 cells. The data set can be described thus: CellTiter-Glo cell viability, OCI-AML2 cells (WT, CARD8-/-). In kind it is cell-based. To be noted: OCI-AML2 WT vs CARD8-/-, 24 h, CTG. As to the method: as §1
The subject of data set [2] is MV4;11, OCI-AML2, and THP-1 cells. The data set can be described thus: LDH release and GSDMD cleavage immunoblot. It counts as cell-based. To be noted: WT vs CARD8-/- cells, 20 μM, 24 h. The protocol:
(§3) LDH cytotoxicity and immunoblotting assays. HEK293T cells were transiently transfected and treated with inhibitors as indicated. MV4;11, OCI AML2, THP-1, and RAW264.7 cells were plated in 12-well culture plates at 5×10^5 cells/well and treated as indicated. Supernatants were analyzed for LDH activity using the Pierce LDH Cytotoxicity Assay Kit (Life Technologies). LDH activity was quantified relative to a lysis control where cells were lysed in 80 μL of a 9% Triton X-100 solution. For immunoblotting, cells were washed 2× in PBS (pH=7.4), resuspended in PBS, and lysed by sonication. Protein concentrations were determined and normalized using the DCA Protein Assay kit (Bio-Rad). The samples were separated by SDS-PAGE, immunoblotted, and visualized using the Odyssey Imaging System (Li-Cor).

The subject of a further data set is human resting T cells. The data set can be described thus: GSDMD cleavage in human resting T cells. To be noted: 20 μM, 24 h. In kind it is cell-based.
Source text: Human primary cell isolation and culture. Isolated human primary cells were obtained from Astarte Biologics. All cells were >90% purity, as validated by flow cytometry by Astarte Biologics. T cells were thawed in RPMI-1640 medium supplemented with 10% FBS and cultured in RPMI-1640 medium, 10% fetal bovine serum (FBS), and 30 U/mL IL-2 (Peprotech).
as §3

A short description of data set [3]: Stability in cell culture supernatants. To be noted: cell culture supernatants. It counts as in vitro ADME.
Data set [4] can be described thus: De-esterification in cell culture. It counts as in vitro ADME. To be noted: after 24 h.
The test system of data set [5] is OCI-AML2 cells. The data set can be described thus: Propidium iodide uptake, OCI-AML2 cells. It counts as cell-based. To be noted: 6.25 μM, compared to CQ31. The protocol: as §2

In turn, `COC(=O)[C@@H]1CCCN1C(=O)[C@@H](O)[C@H](N)CC(C)C` [CQ31] displayed an IC50 in the data set with MV4;11 CASP1-/- cells greater than 100 µM. In addition, the PI uptake entry in the data set on MV4;11 cells is “induced PI uptake in WT, but not CASP1−/− or CARD8−/−”. Moreover, the cell death result in the data set with OCI-AML2 cells [1] was “induced cell death in WT, but not CARD8−/−”. Moreover, the “LDH release and GSDMD cleavage” value in data set [2] was “induced lactate dehydrogenase (LDH) release and GSDMD cleavage”. Further, the GSDMD cleavage result in the data set with human resting T cells is recorded as “induced GSDMD cleavage”. Further, the “time to conversion to CQ04” value in data set [3] is listed as no more than 30 min. Besides, in data set [4], the “de-esterification to CQ04 in cell culture” value is given as “completely de-esterified”.
`COC(=O)[C@H](CC(C)C)NC(=O)[C@@H]1CCCN1C(=O)[C@@H](O)[C@H](N)CC(C)C` [CQ80, Methyl ((2S,3R)-3-amino-2-hydroxy-5-methylhexanoyl)-L-prolyl-L-leucinate] gave an IC50 with MV4;11 CASP1-/- cells greater than 20 µM. The “lytic cell death by uptake of propidium iodide” value in the data set on OCI-AML2 cells [5] is recorded as “more rapid lytic cell death”. Moreover, the PI uptake result in the data set with MV4;11 cells is on record as “induced PI uptake in WT, but not CASP1−/− or CARD8−/−”. The cell death entry in the data set with OCI-AML2 cells [1] is on record as “induced cell death in WT, but not CARD8−/−”. Further, in data set [2], the “LDH release and GSDMD cleavage” value is “induced lactate dehydrogenase (LDH) release and GSDMD cleavage”. Moreover, in the data set with human resting T cells, the GSDMD cleavage result was “induced GSDMD cleavage”. In addition, the “remained intact after 24 h” value in data set [3] (24 h) is reported as roughly 50%.
